Source: patent US7781580B2, “Stilbene derivatives as new cancer therapeutic agents” (Virginia Commonwealth University, priority 2007, dated 2010)
Counter-ions that a name gives are not always drawn. Like-named read-outs stand apart in the source and are kept apart here. Values belong to the compound of their own block, whether it stands above or below them.

Tests used:
HL60 cells = details: cited from earlier work; for IC50: read-out: IC50, induction of HL60 apoptosis
[1] = system: SKOV3 ovarian cancer cells; test: Alamar Blue cell growth inhibition, SKOV3; format: cell-based; details: for effective / active concentration: SKOV3, 48 hours
Description: Cells were incubated with various concentrations of the compounds for 48 hours. Cell growth was measured by Alamar Blue™ staining and the percentage of cell growth inhibition was calculated and compared with the control cells that were treated with 0.1% DMSO, the vehicle for the stilbene compounds.
(§1) Various cancer cell lines were grown in 96-well plates for drug sensitivity assays. Once cells achieved 50% confluence, the incubation media was changed to the same cell growth media with different concentrations of the tested compounds or vehicle alone. Cells were then incubated for 48 hours before the cell growth inhibition study. To determine the degree of cell growth inhibition, 1/10 volume of Alamar Blue™ solution was added to each well and optical density (OD) at 570 and 600 nm was determined. The percentage of growth inhibition was calculated according to the manufacturer's formula as follows: The percentage of growth is [(117216×A570)−(80586×A600)]/[(117216×A^o570)−(80586×A^o600)]×100. In this formula, A570 is the absorbance of the treated samples at 570 nm; A600 is the absorbance of the treated samples at 600 nm; A^o570 is the absorbance of the […] samples at 570 nm; and A^o600 is the absorbance of the untreated samples at 600 nm. The two constants, 117216 and 80586, are the extinction coefficients of Alamar Blue™ at 570 and 600 nm respectively. Each concentration was repeated in triplicate to minimize the error.

[2] = system: SNU423 hepatocellular carcinoma cells; test: Alamar Blue cell growth inhibition, SNU423; format: cell-based
Description: Cell growth was measured by Alamar Blue™ staining and the OD absorbance at 570 and 600 nm was determined by a microplate reader. The percentage of cell growth inhibition was calculated and compared with the control cells that were treated with 0.1% DMSO, the vehicle for the stilbene compounds.
as §1
(§2) We first tested the cytotoxic effect of various stilbene derivatives for their in vitro efficacy of suppressing tumor cell proliferation. Cells were first plated in 96-well plates at 50% confluence and treated with 0, 0.01, 0.03, 0.1, 0.3, 1.0, 3.0, 10 μM concentrations of stilbene derivatives for 48 hours in triplicate. Alamar Blue™ reagent was added into each well at 1/10 volume and incubated for 2 hours before quantification of the absorbance at 570 and 600 nm.

[3] = system: UCI101 ovarian cancer cells; test: Alamar Blue cell growth inhibition, UCI101; format: cell-based; details: UCI101, 48 hours
Description: Cell growth was measured by AlamarBlue™ staining and the percentage of cell growth inhibition was calculated and compared with the control cells that were treated with 0.1% DMSO, the vehicles for the stilbene compounds.
Cells were treated with the tested drug for 2 days before analysis of cell growth by Alamar Blue™ staining. Cells treated with 0.1% DMSO were used as control and set as 100%.
(a) In vitro sensitivity of UCI101 cells toward three potential stilbene prodrugs, 5a-c, was tested in 96-well plates using Alamar Blue™ assays to determine cell growth inhibition. […] (b) 5b induces cell cycle change and apoptosis in UCI101 cells. Cells were incubated with 5b at 1, 3, 10 μM for 16 hours followed by PI staining and flow cytometry analysis. A subG0/1 population, representing apoptotic cells, appeared along with a decrease of the G1/G2 ratio after cells were treated with 3 μM 5b. Higher concentration (10 μM) of 5b completely killed cells, as was the case with stilbene 4a at […]. (c) Cells treated with stilbene 4a and 5b were stained with phospho-histone 3B, a mitotic marker. The positive signals of phospho-histone 3B were shown in green and nuclei were stained with DAPI in blue. […] (d) In vivo efficacy of 5b compared with stilbene 4a. Nude mice were injected with UCI101 ovarian cancer cells and treated with 7 doses of 5b,c or stilbene 4a every 2-3 days. Tumor volume was calculated and plotted against days.
as §1, §2

[4] = system: UCI101 ovarian cancer cells; test: Western blot of signal transduction events, UCI101; format: cell-based; details: for phosphorylation of Chk1: 36 hours
Description: All these agents are microtubule interfering agents but with different binding sites. Cells were harvested at 0, 4, 8, 16 and 36 hours after drug treatment for Western blot analysis. […] Phosphorylation of both Cdc25C and Cdc2 disappeared after 16 hours and slightly recovered at 36 hours. […] Akt phosphorylation decreased after 16 hours of treatment.
In order to understand the mechanism of resistance of stilbenes, various signal transduction pathways were investigated to examine how cells respond to stilbene treatment. UCI101 ovarian cancer cells were treated with stilbenes 4a, 4c or paclitaxel (Taxol) at 0.1 μM for 0, 4, 8, 16 and 36 hours. Cells were harvested for Western blotting. Changes in the kinases involved in cell cycle progression from G2-M transition were first determined in Cdc2, Cdc25c, and mitotic spindle check point regulator BubR1. […] 36 hours after treatment, rephosphorylation of Cdc2 was observed. […] The higher molecular weight isomer of Cdc25c, the mitotic form, increased at 16 and 36 hours. […] A similar study was then performed with other microtubule interfering agents such as combretastatin A4, 13a and vincristine for comparison. A similar trend was observed among these three microtubule interfering agents (FIG. 18).

MDA-MB231 cells = test: immunofluorescent staining of tubulin, MDA-MB231; format: cell-based; details: CA4 10 nM, stilbene 4a 100 nM, vincristine 100 nM, 5b 3 μM; 16 hours
From the text: Nuclei were stained with 4′,6-diamidino-2-phenylindole (DAPI). Control cells show the reticular pattern of the microtubule network.

[5] = acute toxicity in dose escalating study; format: in vivo, mice
Description: Acute toxicity in dose escalating study: We investigated the efficacy of stilbene 4a in vivo using mouse xenograft model. First we determined the maximal tolerated dose of stilbene 4a since it has a higher potency in vitro. […] Subsequently mice fully recovered 30 min after injection.

[6] = system: MiaPaCa2 pancreatic cancer cells; test: Alamar Blue cell growth inhibition, MiaPaCa2; format: cell-based; details: Homo sapiens, MIA PaCa-2; MiaPaCa2
Description: as §1, §2

[7] = system: MDA-MB231 breast cancer cells; test: Alamar Blue cell growth inhibition, MDA-MB231; format: cell-based; details: Homo sapiens, MDA-MB-231; MDA-MB231
Description: Cell growth was measured by Alamar Blue™ staining and the percentage of cell growth inhibition was calculated and compared with control cells that were treated with 0.1% DMSO, the vehicles for the stilbene compounds.
as §1, §2

[8] = in vivo; cited from earlier work
Tubulin (>99% pure) = test: tubulin polymerization assay (OD 340 nm); format: biochemical; details: OD340 nm; nocodazole and paclitaxel 10 μM
Description: FIG. 3a-d. Stilbenes inhibit tubulin polymerization. (a) Effect of stilbene 4a. Pure tubulin was incubated with various concentrations of stilbene 4a, 10 μM nocodazole, and 10 μM paclitaxel in the polymerization buffer. The OD at 340 nm was monitored every minute by SpectraMAX 250 and plotted against time. (b) Effect of stilbene 4c. (c) Comparison of same concentrations of stilbenes 4a, 4a trans, 4c and 4c trans with control. […] Tubulin was incubated with [^3H]-colchicine and various concentrations of different stilbenes for 20 min. Tubulin was then separated from the unbound [^3H]-colchicine by Microcon-30 and washed three times with PBS. The radioactivity of the tubulin was counted. […] All experiments were done in triplicates.
The tubulin polymerization assay kit was purchased from Cytoskeleton (Denver, Colo.). Tubulin (>99% pure) was mixed with general tubulin buffer (GTB, 80 mM PIPES pH 6.9, 2 mM MgCl2, 0.5 mM EGTA, and 1 mM GTP) in a 96-well plate at 37° C. Absorbance at 340 nm was measured every 1 min for 60 min by SpectraMAX 250 (Molecular Devices, Sunnyville, Calif.). Analysis of the results was performed by SoftMAX Pro version 1.2.0 from the same company.

Structure (SMILES): COc1cc(/C=C\c2ccc(OC)c(O)c2)cc(OC)c1 [stilbene 6c, cis-3,4′,5-trimethoxy-3′-hydroxystilbene]
cytotoxicity under overexpression of MDR gene (HL60 cells): not affected by overexpression of multiple-drug resistant (MDR) gene | IC50 (HL60 cells; Roberti et al.): 30 nM

IC50 ([1]; Homo sapiens, SK-OV-3, SKOV, read-out: IC50): 50 to 100 nM
Structure (SMILES): CC[C@]1(O)C[C@H]2CN(CCc3c([nH]c4ccccc34)[C@@](C(=O)OC)(c3cc4c(cc3OC)N(C=O)[C@H]3[C@@](O)(C(=O)OC)[C@H](OC(C)=O)[C@]5(CC)C=CCN6CC[C@]43[C@@H]65)C2)C1 [vincristine, reference compound]
effective / active concentration [1]: 0.1 µM | relative potency ([2]; SNU423): equivalent | relative potency / activity [3]: about equal in their potency | phosphorylation of Stat3 ([4]; 0.1 μM): more pronounced | phosphorylation of Chk1 [4]: do not cause more phosphorylation of Chk1 | microtubule pattern (MDA-MB231 cells): fine granular pattern without formation of microtubules

Structure (SMILES): COc1cc(/C=C\c2ccc(OC)c(N)c2)cc(OC)c1 [stilbene 5c, cis-3,4′,5-trimethoxy-3′-aminostilbene]
cytotoxicity under overexpression of MDR gene (HL60 cells; Roberti et al.): not affected by overexpression of multiple-drug resistant (MDR) gene | IC50 (HL60 cells; Roberti et al.): 30 nM | acute toxicity at 6 or 33 mg/kg ([5]; 6 or 33 mg/kg intravenously): did not cause any acute toxicity | acute toxicity at 72 and 97 mg/kg ([5]; 72 and 97 mg/kg intravenously): transient weakness as shown by dragging feet and sluggish movement | time to full recovery after injection ([5]; 72 and 97 mg/kg intravenously): 30 min

IC50 ([2]; Homo sapiens, SNU-423, 48 h, read-out: IC50 (50% growth inhibition), SNU423, 48 hours): ≤ 300 nM | IC50 ([2]; read-out: IC50 (50% growth inhibition), SNU423, 48 hours, hydrochloride): 300 nM | IC50 [6]: 300 nM | IC50 [7]: 80 nM
Structure (SMILES): COc1cc(/C=C\c2ccc(OC)c(N)c2)cc(OCCO)c1 [10a, (Z)-2-{3-[2-(3-Amino-4-methoxy-phenyl)-vinyl]-5-methoxy-phenoxy}-ethanol, hydrochloride]
activity ([1]; SKOV3): also effective | effective / active concentration [1]: 0.1 µM

Structure (SMILES): COc1cc2c(c(OC)c1OC)-c1ccc(OP(=O)(O)O)cc1[C@@H](NC(C)=O)CC2 [ZD6126]
toxicity in phase I clinical trials [8]: cardiac toxicity (such as decreasing left ventricular ejection fraction) and dose limiting toxicity were observed

Structure (SMILES): CC(=O)O[C@H]1C(=O)[C@@]2(C)[C@H]([C@H](OC(=O)c3ccccc3)[C@]3(O)C[C@H](OC(=O)[C@H](O)[C@@H](NC(=O)c4ccccc4)c4ccccc4)C(C)=C1C3(C)C)[C@]1(OC(C)=O)CO[C@@H]1C[C@@H]2O [paclitaxel, reference compound]
phosphorylation of Cdc2 at Tyr15 ([4]; 0.1 μM, 16 hours): decreased dramatically | phosphorylation of Chk1 [4]: do not cause more phosphorylation of Chk1 | effect on tubulin polymerization (Tubulin (>99% pure)): enhanced
